In PubChem BioAssay AID328 (DTP/NCI, 2004):
Several values for one entry are separate records, joined by “and”; a condition that tells them apart may be missing. Equal entries are not always repeated. Inconclusive results and toxic doses are left out.

Tested on: BDF1 mice, P388 leukemia ip, median survival T/C
Test: NCI In Vivo Anticancer Drug Screen. Data for tumor model P388 Leukemia (intraperitoneal) in B6D2F1 (BDF1) mice
Conditions: endpoint: median survival time, higher = longer survival
Outline: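 Compound-treated tumour-bearing mice were compared with vehicle-treated controls. Survival was recorded, and the value is the treated-group measurement divided by the control-group measurement (T/C).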

[1] = dose: 0.25 mg/kg/injection, schedule: Q01DX009 (ip), vehicle: water
[2] = dose: 0.5 mg/kg/injection, schedule: Q01DX009 (ip), vehicle: water
[3] = dose: 50.0 mg/kg/injection, schedule: Q01DX009 (ip), vehicle: saline with Tween-80
[4] = dose: 100.0 mg/kg/injection, schedule: Q01DX009 (ip), vehicle: saline with Tween-80
[5] = dose: 200.0 mg/kg/injection, schedule: Q01DX009 (ip), vehicle: saline with Tween-80
[6] = dose: 100.0 mg/kg/injection, schedule: Q04DX003 (ip), vehicle: Klucel (hydroxypropylcellulose) (HPC)
[7] = dose: 200.0 mg/kg/injection, schedule: Q04DX003 (ip), vehicle: Klucel (hydroxypropylcellulose) (HPC)
[8] = dose: 400.0 mg/kg/injection, schedule: Q04DX003 (ip), vehicle: Klucel (hydroxypropylcellulose) (HPC)
[9] = dose: 25.0 mg/kg/injection, schedule: Q01DX009 (ip), vehicle: saline with Tween-80
[10] = dose: 100.0 mg/kg/injection, schedule: Q04DX003 (ip), vehicle: saline with Tween-80
[11] = dose: 200.0 mg/kg/injection, schedule: Q04DX003 (ip), vehicle: saline with Tween-80
[12] = dose: 400.0 mg/kg/injection, schedule: Q04DX003 (ip), vehicle: saline with Tween-80
[13] = dose: 12.5 mg/kg/injection, schedule: Q04DX003 (ip), vehicle: saline
[14] = dose: 25.0 mg/kg/injection, schedule: Q04DX003 (ip), vehicle: saline

Q: How did the T/C (dose: 0.25 mg/kg/injection, schedule: Q01DX005 (ip), vehicle: water) turn out when `OCC1OC(n2cnc3c2NC=NC[C@H]3O)CC1O` (some centres undefined) was run?
A: 102 % of control

Q: And the T/C [1]?
A: 105 % of control

Q: And the T/C (dose: 0.25 mg/kg/injection, schedule: Q04DX002 (ip), vehicle: saline)?
A: 102 % of control

Q: What about the T/C (dose: 0.25 mg/kg/injection, schedule: Q04DX003 (ip), vehicle: saline) of the same compound?
A: 100 % of control

Q: And the T/C (dose: 0.5 mg/kg/injection, schedule: Q01DX005 (ip), vehicle: water)?
A: 109 % of control

Q: And the T/C [2]?
A: 102 % of control

Q: And the T/C (dose: 0.5 mg/kg/injection, schedule: Q04DX002 (ip), vehicle: saline)?
A: 101 % of control

Q: What about the T/C (dose: 0.5 mg/kg/injection, schedule: Q04DX003 (ip), vehicle: saline) of the same compound?
A: 99 % of control

Q: And the T/C (dose: 0.8 mg/kg/injection, schedule: Q01DX009 (ip), vehicle: saline)?
A: 94 % of control

Q: And the T/C (dose: 1.0 mg/kg/injection, schedule: Q01DX009 (ip), vehicle: saline)?
A: 99 % of control

Q: And the T/C (dose: 1.3 mg/kg/injection, schedule: Q01DX009 (ip), vehicle: saline)?
A: 92 % of control

Q: What about the T/C (dose: 1.5 mg/kg/injection, schedule: Q01DX009 (ip), vehicle: saline) of the same compound?
A: 96 % of control

Q: And the T/C (dose: 2.0 mg/kg/injection, schedule: Q01DX001 (ip), vehicle: saline)?
A: 108 % of control

Q: And the T/C (dose: 2.0 mg/kg/injection, schedule: Q01DX009 (ip), vehicle: saline)?
A: 92 % of control

Q: And the T/C (dose: 2.25 mg/kg/injection, schedule: Q01DX009 (ip), vehicle: saline)?
A: 99 % of control

Q: And the T/C (dose: 3.0 mg/kg/injection, schedule: Q01DX009 (ip), vehicle: saline)?
A: 100 % of control

Q: And the T/C (dose: 4.0 mg/kg/injection, schedule: Q01DX001 (ip), vehicle: saline)?
A: 100 % of control

Q: With `CCOC(=O)C1(CCOC)CCCCC1=O` (centres undefined) as the compound, how does the T/C [3] read?
A: 106 % of control

Q: What about the T/C [4] of the same compound?
A: 117 % of control

Q: What about the T/C [5] of the same compound?
A: 115 % of control

Q: How did the T/C (dose: 12.5 mg/kg/injection, schedule: Q01DX009 (ip), vehicle: gum acacia) turn out when `CCCCCCCCCCCCCCCC(N)=O` was run?
A: 100 % of control

Q: What about the T/C (dose: 50.0 mg/kg/injection, schedule: Q01DX009 (ip), vehicle: gum acacia) of the same compound?
A: 91 % of control

Q: And the T/C [6]?
A: 86 % of control

Q: What about the T/C [7] of the same compound?
A: 90 % of control

Q: What about the T/C [8] of the same compound?
A: 104 % of control

Q: Which results are given for `CC1(C)COC(c2ccc(CC(Cc3ccc(C4(C(C)(C)C)OCC(C)(C)CO4)cc3)C(=O)O)cc2)(C(C)(C)C)OC1`?
A: T/C (dose: 50.0 mg/kg/injection, schedule: Q01DX005 (ip), vehicle: saline with Tween-80): 86 % of control; T/C (dose: 100.0 mg/kg/injection, schedule: Q01DX005 (ip), vehicle: saline with Tween-80): 93 % of control; T/C (dose: 200.0 mg/kg/injection, schedule: Q01DX005 (ip), vehicle: saline with Tween-80): 96 % of control

Q: `O=C1O/C(=C2\OCc3ccccc32)c2ccccc21` was tested. Which T/C [9] did it give?
A: 100 % of control

Q: What about the T/C [3] of the same compound?
A: 98 % of control

Q: And the T/C [4]?
A: 98 % of control

Q: What about the T/C [5] of the same compound?
A: 96 % of control

Q: How did the T/C [3] turn out when `CS(=O)(=O)CC(O)(c1ccccc1)c1cccnc1` (centres undefined) was run?
A: 98 % of control

Q: And the T/C [4]?
A: 104 % of control

Q: What about the T/C [5] of the same compound?
A: 98 % of control

Q: `CCCCCCC1OCC2(CO1)COC(CCCCCC)OC2` (centres undefined) was tested. Which T/C [10] did it give?
A: 90 % of control

Q: And the T/C [11]?
A: 86 % of control

Q: What does the source list for `CCOC(=O)C(O)(NC(=O)N/N=C/c1ccccc1)C(=O)OCC`?
A: T/C [10]: 104 % of control; T/C [11]: 112 % of control; T/C [12]: 91 % of control

Q: How did the T/C (dose: 0.12 mg/kg/injection, schedule: Q01DX009 (ip), vehicle: water) turn out when `CO[C@H](C(=O)[C@@H](O)[C@@H](C)O)[C@@H]1Cc2cc3cc(O)c(C)c(O)c3c(O)c2C(=O)[C@H]1O` was run?
A: 114 % of control

Q: And the T/C [1]?
A: 107 % of control

Q: What about the T/C [2] of the same compound?
A: 114 % of control

Q: What about the T/C (dose: 1.0 mg/kg/injection, schedule: Q01DX009 (ip), vehicle: water) of the same compound?
A: 99 % of control

Q: What about the T/C (dose: 2.0 mg/kg/injection, schedule: Q01DX009 (ip), vehicle: water) of the same compound?
A: 97 % of control

Q: And the T/C (dose: 4.0 mg/kg/injection, schedule: Q01DX009 (ip), vehicle: water)?
A: 99 % of control

Q: For `CCCCC(CC)C(=O)[O][Sn]([CH2]CCC)([CH2]CCC)[O]C(=O)C(CC)CCCC` (centres undefined), which T/C (dose: 6.25 mg/kg/injection, schedule: Q04DX003 (ip), vehicle: acetone) is on record?
A: 91 % of control

Q: And the T/C (dose: 12.5 mg/kg/injection, schedule: Q04DX003 (ip), vehicle: acetone)?
A: 95 % of control

Q: Which T/C (dose: 6.25 mg/kg/injection, schedule: Q01DX009 (ip), vehicle: saline with Tween-80) does the source give for `C[n+]1ccc2ccccc2c1CCCc1nccc2ccccc12` here?
A: 100 % of control

Q: And the T/C (dose: 12.5 mg/kg/injection, schedule: Q01DX009 (ip), vehicle: saline with Tween-80)?
A: 120 % of control

Q: What about the T/C [9] of the same compound?
A: 116 % of control

Q: With `CCOC(=O)Cn1c(=S)sc2ccccc21` as the compound, how does the T/C [9] read?
A: 114 % of control

Q: What about the T/C [3] of the same compound?
A: 98 % of control and 114 % of control

Q: And the T/C [4]?
A: 95 % of control and 120 % of control

Q: What about the T/C [5] of the same compound?
A: 93 % of control and 100 % of control

Q: Which results are given for `O=C(O)C(CSC(c1ccccc1)c1ccccc1)N1C(=O)c2ccccc2C1=O` (centres undefined)?
A: T/C (dose: 50.0 mg/kg/injection, schedule: Q04DX003 (ip), vehicle: Klucel (hydroxypropylcellulose) (HPC)): 100 % of control; T/C [6]: 104 % of control; T/C [7]: 95 % of control

Q: What does the source list for `CC(C)(C)[Si](C)(C)OC(=O)NCCCl`?
A: T/C (dose: 100.0 mg/kg/injection, schedule: Q04DX002 (ip), vehicle: saline with Tween-80): 100 % of control; T/C (dose: 200.0 mg/kg/injection, schedule: Q04DX002 (ip), vehicle: saline with Tween-80): 109 % of control; T/C (dose: 400.0 mg/kg/injection, schedule: Q04DX002 (ip), vehicle: saline with Tween-80): 118 % of control

Q: For `O=[N+]([O-])C=C1CCCCC1`, which T/C (dose: 25.0 mg/kg/injection, schedule: Q01DX001 (ip), vehicle: saline with Tween-80) is on record?
A: 113 % of control

Q: And the T/C (dose: 50.0 mg/kg/injection, schedule: Q01DX001 (ip), vehicle: saline with Tween-80)?
A: 118 % of control

Q: What about the T/C (dose: 100.0 mg/kg/injection, schedule: Q01DX001 (ip), vehicle: saline with Tween-80) of the same compound?
A: 113 % of control

Q: Which results are given for `COc1cc(NS(C)(=O)=O)ccc1N`?
A: T/C (dose: 100.0 mg/kg/injection, schedule: Q01DX009 (ip), vehicle: Klucel (hydroxypropylcellulose) (HPC)): 100 % of control; T/C [6]: 100 % of control; T/C (dose: 200.0 mg/kg/injection, schedule: Q01DX009 (ip), vehicle: Klucel (hydroxypropylcellulose) (HPC)): 90 % of control

Q: How did the T/C [13] turn out when `C1=CC=CCC=C1` was run?
A: 100 % of control

Q: What about the T/C (dose: 25.0 mg/kg/injection, schedule: Q01DX009 (ip), vehicle: saline) of the same compound?
A: 150 % of control

Q: What about the T/C [14] of the same compound?
A: 113 % of control

Q: What about the T/C (dose: 50.0 mg/kg/injection, schedule: Q01DX009 (ip), vehicle: saline) of the same compound?
A: 111 % of control

Q: And the T/C (dose: 50.0 mg/kg/injection, schedule: Q04DX003 (ip), vehicle: saline)?
A: 109 % of control

Q: Which results are given for `Cc1ccc(S(=O)(=O)CC([Se]C#N)c2ccccc2)cc1` (centres undefined)?
A: T/C [10]: 105 % of control; T/C [11]: 92 % of control; T/C [12]: 89 % of control

Q: With `C1CC2CCCC3CC(B4OCCO4)CC(C1)C23` (centres undefined) (tested in a mixture with another compound) as the compound, how does the T/C (dose: 100.0 mg/kg/injection, schedule: Q04DX003 (ip), vehicle: other) read?
A: 120 % of control

Q: And the T/C (dose: 200.0 mg/kg/injection, schedule: Q04DX003 (ip), vehicle: other)?
A: 100 % of control

Q: What about the T/C (dose: 400.0 mg/kg/injection, schedule: Q04DX003 (ip), vehicle: other) of the same compound?
A: 100 % of control

Q: What does the source list for `O=C(c1ccc([N+](=O)[O-])cc1)C(Br)C(Br)c1ccncc1` (centres undefined)?
A: T/C (dose: 50.0 mg/kg/injection, schedule: Q01DX001 (ip), vehicle: Klucel (hydroxypropylcellulose) (HPC)): 105 % of control; T/C (dose: 100.0 mg/kg/injection, schedule: Q01DX001 (ip), vehicle: Klucel (hydroxypropylcellulose) (HPC)): 110 % of control; T/C [6]: 113 % of control; T/C (dose: 200.0 mg/kg/injection, schedule: Q01DX001 (ip), vehicle: Klucel (hydroxypropylcellulose) (HPC)): 115 % of control; T/C [7]: 113 % of control; T/C [8]: 113 % of control

Q: How did the T/C (dose: 50.0 mg/kg/injection, schedule: Q01DX005 (ip), vehicle: saline + Tween-80 + alcohol) turn out when `[O-][n+]1c(/C=C/c2cccc3ccccc23)cccc1/C=C/c1cccc2ccccc12` was run?
A: 94 % of control

Q: And the T/C (dose: 100.0 mg/kg/injection, schedule: Q01DX005 (ip), vehicle: saline + Tween-80 + alcohol)?
A: 96 % of control

Q: And the T/C (dose: 200.0 mg/kg/injection, schedule: Q01DX005 (ip), vehicle: saline + Tween-80 + alcohol)?
A: 96 % of control

Q: With `COCCOCCN1CCN(CCCN2c3ccccc3Sc3ccc(C(F)(F)F)cc32)CC1` as the compound, how does the T/C [13] read?
A: 112 % of control

Q: What about the T/C [14] of the same compound?
A: 108 % of control
